For two compounds, Ki results are on record in ChEMBL document CHEMBL1125328, “Design and synthesis of a C7 mimetic for the predicted gamma-turn conformation found in several constrained RGD antagonists” (J Med Chem, 1992).

This assay addresses Integrin alpha-IIb/beta-3 (Homo sapiens, UniProt P05106+P08514). Description: Inhibition of [3H]-107260 binding to purified GPIIb/IIIa of human platelets.

Molecules are shown by their SMILES. Bridge positions count the residues as written; N and C are the ends. Square brackets hold non-standard residues; d marks the D form. Peptide text beside a SMILES is read from it. NMeR = CN[C@@H](CCCNC(=N)N)C(=O)O

Integrin alpha-IIb/beta-3, sequence (P05106 27-788 limits assumed): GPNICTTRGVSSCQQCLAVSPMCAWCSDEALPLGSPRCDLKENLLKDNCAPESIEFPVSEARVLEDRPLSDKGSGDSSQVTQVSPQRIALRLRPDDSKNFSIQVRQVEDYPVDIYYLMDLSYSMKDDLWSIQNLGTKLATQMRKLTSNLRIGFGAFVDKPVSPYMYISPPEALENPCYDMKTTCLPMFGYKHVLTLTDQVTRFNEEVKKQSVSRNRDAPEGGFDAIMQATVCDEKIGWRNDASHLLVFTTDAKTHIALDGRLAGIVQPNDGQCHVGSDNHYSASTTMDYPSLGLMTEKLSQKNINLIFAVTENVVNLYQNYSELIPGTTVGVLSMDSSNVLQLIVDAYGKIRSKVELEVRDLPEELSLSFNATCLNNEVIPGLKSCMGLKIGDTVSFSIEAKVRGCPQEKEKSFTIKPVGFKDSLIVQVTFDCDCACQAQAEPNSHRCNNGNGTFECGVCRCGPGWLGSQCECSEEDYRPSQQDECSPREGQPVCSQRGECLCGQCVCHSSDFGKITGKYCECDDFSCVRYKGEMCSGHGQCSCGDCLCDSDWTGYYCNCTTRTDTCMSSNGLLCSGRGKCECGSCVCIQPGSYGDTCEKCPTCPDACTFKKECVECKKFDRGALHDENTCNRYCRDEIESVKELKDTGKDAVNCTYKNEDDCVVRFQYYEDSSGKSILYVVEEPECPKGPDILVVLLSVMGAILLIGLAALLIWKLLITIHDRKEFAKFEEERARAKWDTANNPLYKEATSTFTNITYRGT
Integrin alpha-IIb/beta-3, sequence (P08514 32-887 limits assumed): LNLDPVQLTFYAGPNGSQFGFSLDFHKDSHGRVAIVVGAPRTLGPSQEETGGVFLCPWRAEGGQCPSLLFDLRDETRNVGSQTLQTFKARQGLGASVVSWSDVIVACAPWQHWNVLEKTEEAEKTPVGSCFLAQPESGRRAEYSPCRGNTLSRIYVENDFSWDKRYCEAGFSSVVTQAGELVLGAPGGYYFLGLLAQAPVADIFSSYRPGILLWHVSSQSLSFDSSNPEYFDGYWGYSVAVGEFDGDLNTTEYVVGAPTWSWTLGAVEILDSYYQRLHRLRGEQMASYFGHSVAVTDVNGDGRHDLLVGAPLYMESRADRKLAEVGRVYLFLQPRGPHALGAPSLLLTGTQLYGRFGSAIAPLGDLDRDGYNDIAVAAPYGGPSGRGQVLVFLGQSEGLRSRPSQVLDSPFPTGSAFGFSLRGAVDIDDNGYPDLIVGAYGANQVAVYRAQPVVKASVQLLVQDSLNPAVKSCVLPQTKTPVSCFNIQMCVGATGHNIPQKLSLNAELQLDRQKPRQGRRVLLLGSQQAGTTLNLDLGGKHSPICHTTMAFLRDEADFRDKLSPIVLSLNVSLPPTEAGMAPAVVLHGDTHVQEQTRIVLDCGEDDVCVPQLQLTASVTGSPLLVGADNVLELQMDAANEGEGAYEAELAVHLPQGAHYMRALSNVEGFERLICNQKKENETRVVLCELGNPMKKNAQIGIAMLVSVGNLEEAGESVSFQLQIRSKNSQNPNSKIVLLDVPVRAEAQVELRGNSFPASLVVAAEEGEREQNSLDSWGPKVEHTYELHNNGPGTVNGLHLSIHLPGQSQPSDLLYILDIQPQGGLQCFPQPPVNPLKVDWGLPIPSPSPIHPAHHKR
Integrin alpha-IIb/beta-3, sequence (P08514 891-1039 limits assumed): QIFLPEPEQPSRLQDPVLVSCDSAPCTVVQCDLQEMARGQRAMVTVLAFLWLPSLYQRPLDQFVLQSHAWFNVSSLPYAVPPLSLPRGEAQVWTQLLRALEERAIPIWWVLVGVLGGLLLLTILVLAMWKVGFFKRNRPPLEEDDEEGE

The compound `CC(=O)N[C@H]1CSSC[C@@H](C(N)=O)NC(=O)[C@H](CC(=O)O)NC(=O)CNC(=O)[C@H](CCCN=C(N)N)N(C)C1=O` (Ac-C[NMeR]GDC-NH2; disulfide 1-5) returned a Ki of 175 nM.

`CC(=O)N(C)C(CCCNC(=N)N)C(=O)NCC1=CC(CC(=O)O)C(=O)N(c2ccccc2)CC1` (configuration not stated) had a Ki of 271 nM.

Usually Ki stands for the dissociation constant of the complex between target and ligand, obtained from inhibition or displacement.
